Measured values: patent publication US4489084A, “[1-(2-Oxazolyl) or -(2-thiazolyl) hydrazino]alkyl nitriles” (Abbott Laboratories, priority 1983, dated 1984)
Where a name gives a salt, the structure may show the parent alone.

What was measured:
[1] = system: dermal Arthus reaction (Type III hypersensitivity); assay: reverse passive Arthus assay (Carter and Krause); assay type: in vivo, rats (male Sprague-Dawley); conditions: 100 mg/kg, oral, 30 min before intradermal AntiB.S.A.; lesion after 4 hours; 4 rats per group
Method: Proc. 35, 774 (1976). Each compound was administered orally to a group of four animals. The reserve passive Arthus reaction test in rats is conducted as follows: Male Sprague-Dawley rats weighing approximately 130-160 g. are used, 4 rats per group. All animals are injected intravenously with 0.5 ml. 0.075% Bovine Serum Albumin (B.S.A.) +2% Evans Blue solution. Each rat then receives an oral dose of drug; one drug is administered per group. Thirty minutes subsequent to drug dosing, each animal is injected intradermally with 0.05 ml. 1.44% AntiB.S.A. into the dorsal skin. Four hours later the animals are sacrificed, the dorsal skin reflexed, and the lesion excised. Two perpendicular diameters of each lesion are measured. The average diameters of the lesions from the treated groups are compared with the average diameters from the control group to determine any drug effect. […] Proc. 35, 774 (1976)]. Each compound was administered orally to a group of four animals.

[2] = system: carrageenin pleurisy (accumulation of exudate volume and leukocytes); assay: carrageenin pleurisy assay (modification of Vinegar et al.); assay type: in vivo; conditions: Dose 100 (unit not given); for % Inhibition, Volume exudates: exudate volume; for % Inhibition, Cells: leukocyte accumulation
Excerpt: The anti-inflammatory activity of these compounds was established by using a modification of the carrageenin pleurisy assay described by Vinegar et al. Proc. Soc. Exp. Biol. Med. 143:711 (1973).

SMILES	% Inhibition of lesion of dermal Arthus reaction [1]	% Inhibition, Volume exudates [2] [%]	% Inhibition, Cells [2] [%]
Cl.N#CCCN(N)c1ncco1 [3-[1-(2-Oxazolyl)hydrazino]propanenitrile hydrochloride]	42%	32	21
Cl.N#CCCN(N)c1nc(-c2ccccc2)co1 [3-[1-(4-Phenyl-2-oxazolyl)-hydrazino]propanenitrile hydrochloride]	59%	–	–
N#CCCN(N)c1nc(-c2ccccc2)c(-c2ccccc2)o1 [3-[1-(4,5-diphenyl-2-oxazolylhydrazino)]propanenitrile hydrochloride]	40%	–	–
Cc1nc(N(N)CCC#N)oc1C.Cl [3-[1-(4,5-dimethyl-2-oxazolyl)-hydrazino]propanenitrile hydrochloride]	38%	–	–
CCCCC1C(=O)N(c2ccccc2)N(c2ccccc2)C1=O [Phenylbutazone, reference compound]	Inactive	59	13
